Measurements taken from US20030065039A1, “Biologically active 1,3-bis-aromatic-prop-2-en-1-ones, 1,3-bis-aromatic-propan-1-ones, and 1,3-bis-aromatic-prop-2-yn-1-ones” (Statens Serum Institute, priority 1997, published 2003).
Like-named read-outs stand apart in the source and are kept apart here.

What was measured:
Assay type in all cases: cell-based
human lymphocytes = assay: Lymphocyte Proliferation Assay; conditions: PHA provoked proliferation of human lymphocytes, read-out: Lymphocytes IC50 ± SD
Method: Human blood mononuclear cells (BMNC) from heparinized blood were isolated by metrizoate sodium-Ficoll density gradient centrifugation, washed 3 times in RPMI 1640 medium supplemented with 5% FCS and with 400 IU of penicillin plus 400 μg/ml streptomycin. BMNC were resuspended in the medium and cultured in triplicate, 0.63×10^5/ml and 160 μl per vial, in round-bottom microtiter plates with 20 μl of various concentrations of the test compound. Immediately prior to incubation, optimum concentrations of the mitogen phytohaemagglutinin (PHA) and the antigen purified protein derivative of tuberculin (PPD) were added to the cultures in a volume of 20 μl. Unstimulated control cultures were always included. Cultures were incubated for 3 or 7 days. The degree of lymphocyte proliferation was estimated by ^3H-thymidine (1 μCi per well) addition 24 h before the cells were harvested on glass fiber filters by means of a harvesting machine), and ^3H-thymidine incorporation was measured in a liquid scintillation counter. For each set of triplicate values, the median was recorded. Unstimulated cultures were always included as controls.

Plasmodium falciparum = Plasmodium falciparum Assay; conditions: 3-H-hypoxanthine incorporation, 48 hours, read-out: Plasmodium IC50 ± SD
Method: The experiments in which compounds were tested for their ability to inhibit parasite growth were performed by a modification of the method originally described by Jensen et al. (1982). 50 μl of parasitized erythrocytes (parasitemia approximately 1%) in a concentration of 5×10^8/ml and 50 μl of RPMI medium containing different concentrations of the test compound was added to each well of a 96 well flat-bottomed microtiter plate. The cultures were then incubated for 48 hours, 24 hours before termination of the culture adding 20 μl of 3-H-hypoxanthine (40 uCi/ml) was added to each well. The cultures were then harvested onto glass fiber filters using a Skatron cell harvester, and the incorporation of 3-H-hypoxanthine into the DNA of dividing parasites was determined by liquid scintillation spectrometry. Control cultures with uninfected erythrocytes and infected erythrocytes in RPMI medium without test compounds were always performed in parallel to the test cultures. In some experiments thin smears of parasite cultures were stained by Giemsa and examined under microscope (×1000). The test compounds described above, were diluted in RPMI medium immediately before use. In the experiments, chloroquine phosphate was used as a positive control as a drug known to inhibit parasite growth.

Leishmania promastigotes = Leishmania promastigotes Assay; conditions: promastigotes, 3H-thymidine uptake, read-out: Leishmania IC50 ± SD
Method: A WHO reference vaccine strain of L. major originally isolated from a patient in Iran and a Kenyan strain of L. donovani (MHOM(/KE/85/NLB 274) were cultured in medium 199 containing 0.02 mg/ml gentamycin, 25 mM Hepes, 4 mM L-glutamine, and 20% heat inactivated fetal calf serum (FCS). Incubation was carried out at 26° C. Promastigotes were harvested on day 3 and 6 of the culture and used for the parasite growth inhibition.
The effect of the test compounds on promastigotes was assessed by a method similar to the one described by Pearson et al., by incubating promastigotes (3×10^6/ml) at 26° C. for 2 hrs in the presence of a given compound or the medium alone in 96 wells flat bottom microtiter plates. Following incubation, 100 μCi of 3H-thymidine was added to each well and further incubated for 18 hrs. Promastigotes were then harvested on filter paper by means of a cell harvester, extensively washed with distilled water and counted in a scintillation counter. The promastigotes were also counted microscopically and their flagellar motility was assessed.

SMILES	IC50 (human lymphocytes) [µM]	IC50 (Plasmodium falciparum) [µM]	IC50 (Leishmania promastigotes) [µM]	IC50 (human lymphocytes; Lymphocyte) [µM]	IC50 (Plasmodium falciparum; Plasmodium falciparum) [µM]	IC50 (Leishmania promastigotes; Leishmania) [µM]
CCCCCCOc1ccc(C(=O)/C=C/c2ccccc2)cc1 [4′-OC6H13]	99 ± 7	17	62 ± 5	–	–	–
COc1cc(OC)c(OC)cc1/C=C/C(=O)c1ccc(O)cc1 [2,4,5,-OCH3-4′-OH]	28 ± 2	13	16 ± 2	–	–	–
COc1ccc(C(=O)/C=C/c2ccc(F)c(F)c2)c(OC)c1 [2′,4′-OCH3-3,4-F]	5.3 ± 0.6	10	16 ± 1	–	–	–
CCCCOc1ccc(C(=O)/C=C/c2cc(OC)cc(OC)c2)cc1 [3,5-OCH3-4′-OC4H9]	52 ± 3	17	35 ± 3	–	–	–
CCCCOc1ccc(C(=O)/C=C/c2c(OC)cccc2OC)cc1 [2,6-OCH3-4′-OC4H9, 2,6-dimethoxy-4′-butoxychalcone]	–	–	–	127 ± 10	14	104 ± 9
COc1ccc(/C=C/C(=O)c2ccc(F)cc2F)c(OC)c1 [2′,4′-F-2,4-OCH3]	74 ± 4	49	26 ± 2	–	–	–
COc1cc(O)ccc1/C=C/C(=O)c1ccc(N(C)C)cc1 [2-OCH3-4-OH-4′-N(CH3)2]	111 ± 7	23	49 ± 4	–	–	–
